Assay results as given in ChEMBL document CHEMBL6134803, “ZLDI-8 facilitates pexophagy by ROS-mediated activation of TFEB and ATM in HeLa cells” (Bioorg Med Chem Lett, 2025).
The source made the active and inactive calls. The calls are words filed in the database; no cut-off is given here.

Legend:
Assay type in all cases: functional, cell-based
HeLa [1] = experiment: Induction of pexophagy in human HeLa cells at 5 uM cotreated with KU55933 measured at 48 hrs by immunostaining based analysis
HeLa [2] = experiment: Induction of pexophagy in human HeLa cells expressing HyPer-PTS1 assessed as increase in peroxisomal ROS levels at 5 uM incubated for 48 hrs in presence of ROS scavenger NAC by fluorescence based analysis
HeLa [3] = experiment: Induction of autophagy in human HeLa cells assessed as reduction in peroxisomes number golgi apparatus at 5 uM incubated for 48 hrs in presence of FTCD antibody by fluorescence microscopic analysis
HeLa [4] = experiment: Induction of TFEB nuclear translocation in human HeLa cells assessed as decrease in TFEB phoshorylation at 5 uM cotreated with ROS scavenger NAC measured at 48 hrs by Western blot analysis
HeLa [5] = experiment: Induction of pexophagy in human HeLa cells assessed as reduction in peroxisomes at 5 uM incubated for 48 hrs treated with Bafilomycin A1 by immunostaining based analysis
HeLa [6] = experiment: Induction of pexophagy in wild-type human HeLa cells assessed as reduction in peroxisomes at 5 uM incubated for 48 hrs by immunostaining based analysis
HeLa [7] = experiment: Induction of TFEB nuclear translocation in human HeLa cells expressing EGFP-TFEB at 5 uM measured at 48 hrs in presence of ROS scavenger NAC by fluorescence microscopic analysis
HeLa [8] = experiment: Induction of pexophagy in human HeLa cells assessed as increase in ATM phosphorylation at serine 1981 residue at 5 uM cotreated with ROS scavenger NAC measured at 48 hrs by Western blot analysis
HeLa [9] = experiment: Induction of autophagy in human HeLa cells assessed as reduction in peroxisomes number in mitochondria at 5 uM incubated for 48 hrs in presence of TOMM20 antibody by fluorescence microscopic analysis
TERT-RPE1 = experiment: Induction of pexophagy in human TERT-RPE1 cells expressing mRFP-EGFP-SKL assessed as increase in red-only puncta at 5 uM incubated for 48 hrs by fluorescence microscopic analysis
HeLa [10] = experiment: Induction of autophagy in human HeLa cells assessed as reduction in peroxisomes number in endoplasmic reticulum at 5 uM incubated for 48 hrs in presence of P4HB antibody by fluorescence microscopic analysis
HeLa [11] = experiment: Induction of pexophagy in human HeLa cells expressing HyPer-PTS1 assessed as reduction in peroxisome numbers at 5 uM incubated for 48 hrs in presence of ROS scavenger NAC by immunostaining based analysis
HeLa [12] = experiment: Induction of autophagic flux in human HeLa cells at 5 uM preincubated for 36 hrs followed by addition of Bafilomycin A1 and measured after 12 hrs by Western blot analysis; details: time 48.0 hrs
HeLa [13] = experiment: Induction of pexophagy in human HeLa cells assessed as increase in ATM phosphorylation at serine 1981 residue at 5 uM measured at 48 hrs by Western blot analysis
HeLa [14] = experiment: Induction of pexophagy in ATG5 knockout human HeLa cells assessed as reduction in peroxisomes at 5 uM incubated for 48 hrs by immunostaining based analysis
HeLa [15] = experiment: Induction of pexophagy in human HeLa cells assessed as increase in ROS levels at 5 uM incubated for 48 hrs in presence of ROS scavenger NAC by DCFH-DA staining based assay
HeLa [16] = experiment: Induction of pexophagy in human HeLa cells assessed as reduction in peroxisome numbers at 5 uM incubated for 48 hrs in presence of anti-ABCD3 antibody by immunostaining based analysis
HeLa [17] = experiment: Induction of pexophagy in ATG5 knockout human HeLa cells assessed as […] in LC3II protein expression at 5 uM incubated for 48 hrs by Western blot analysis
HeLa [18] = experiment: Induction of pexophagy in human HeLa cells expressing HyPer-PTS1 assessed as reduction in peroxisome numbers at 5 uM incubated for 48 hrs by immunostaining based analysis
HeLa [19] = experiment: Induction of pexophagy in ATG5 knockout human HeLa cells assessed as decrease in LC3I protein expression at 5 uM incubated for 48 hrs by Western blot analysis
HeLa [20] = experiment: Induction of pexophagy in human HeLa cells at 5 uM measured at 48 hrs by immunostaining based analysis
HeLa [21] = experiment: Induction of pexophagy in ATG5 knockout human HeLa cells assessed as decrease in ABCD3 protein expression at 5 uM incubated for 48 hrs by Western blot analysis
HeLa [22] = experiment: Induction of pexophagy in wild-type human HeLa cells assessed as […] in LC3II protein expression at 5 uM incubated for 48 hrs by Western blot analysis
HeLa [23] = experiment: Induction of pexophagy in wild-type human HeLa cells assessed as decrease in ABCD3 protein expression at 5 uM incubated for 48 hrs by Western blot analysis
HeLa [24] = experiment: Induction of pexophagy in wild-type human HeLa cells assessed as decrease in LC3I protein expression at 5 uM incubated for 48 hrs by Western blot analysis
HeLa [25] = experiment: Induction of TFEB nuclear translocation in human HeLa cells assessed as decrease in TFEB phoshorylation at 5 uM measured at 48 hrs by Western blot analysis

Q: With `Cc1ccc(OCCn2c(C)c(C=C3C(=O)NC(=S)NC3=O)c3ccccc32)c(C)c1` as the molecule, how does the Activity (HeLa [1]) read?
A: Its Activity is “Active”.

Q: What about the Activity (HeLa [2]) of the same molecule?
A: The Activity was “Active”.

Q: What about the Activity (HeLa [3]) of the same molecule?
A: Its Activity is “Active”.

Q: And the Activity (HeLa [4])?
A: Its Activity is “inactive”.

Q: And the Activity (HeLa [5])?
A: Its Activity is “Active”.

Q: What about the Activity (HeLa [6]) of the same molecule?
A: Its Activity is “Active”.

Q: What about the Activity (HeLa [7]) of the same molecule?
A: The Activity was “Active”.

Q: What about the Activity (HeLa [8]) of the same molecule?
A: The Activity was “inactive”.

Q: What about the Activity (HeLa [9]) of the same molecule?
A: The Activity was “Active”.

Q: And the Activity (TERT-RPE1)?
A: Its Activity is “Active”.

Q: And the Activity (HeLa [10])?
A: The Activity was “Active”.

Q: What about the Activity (HeLa [11]) of the same molecule?
A: Its Activity is “inactive”.

Q: What about the Activity (HeLa [12]) of the same molecule?
A: Its Activity is “Active”.

Q: And the Activity (HeLa [13])?
A: Its Activity is “Active”.

Q: And the Activity (HeLa [14])?
A: Its Activity is “inactive”.

Q: And the Activity (HeLa [15])?
A: Its Activity is “Active”.

Q: What about the Activity (HeLa [16]) of the same molecule?
A: The Activity was “Active”.

Q: And the Activity (HeLa [17])?
A: The Activity was “inactive”.

Q: What about the Activity (HeLa [18]) of the same molecule?
A: Its Activity is “Active”.

Q: What about the Activity (HeLa [19]) of the same molecule?
A: The Activity was “inactive”.

Q: And the Activity (HeLa [20])?
A: Its Activity is “Active”.

Q: And the Activity (HeLa [21])?
A: The Activity was “inactive”.

Q: And the Activity (HeLa [22])?
A: Its Activity is “Active”.

Q: What about the Activity (HeLa [23]) of the same molecule?
A: The Activity was “Active”.

Q: And the Activity (HeLa [24])?
A: The Activity was “Active”.

Q: What about the Activity (HeLa [25]) of the same molecule?
A: Its Activity is “Active”.
